Assay results reported in PubChem BioAssay AID212 (DTP/NCI, 2004).
Several values for one entry are separate records, joined by “and”; a condition that tells them apart may be missing. Identical values can stand only once. Inconclusive results are not listed.

Tested on: BDF1 mice, colon carcinoma 38 sc, T/C %
Test: NCI In Vivo Anticancer Drug Screen. Data for tumor model Colon Carcinoma 38 (subcutaneous) in B6D2F1 (BDF1) mice
Conditions: endpoint: median tumor weight (est.), higher = larger tumour
How it was run: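 T/C readout: treated group (T) measurement over vehicle control group (C) measurement. Endpoint is survival or tumor size in mice bearing a transplanted tumor.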

[1] = dose: 25.0 mg/kg/injection, schedule: Q07DX002 (ip), vehicle: saline with Tween-80
[2] = dose: 200.0 mg/kg/injection, schedule: Q07DX002 (ip), vehicle: saline with Tween-80
[3] = dose: 400.0 mg/kg/injection, schedule: Q07DX002 (ip), vehicle: saline with Tween-80
[4] = dose: 6.25 mg/kg/injection, schedule: Q07DX002 (ip), vehicle: saline with Tween-80
[5] = dose: 12.5 mg/kg/injection, schedule: Q07DX002 (ip), vehicle: saline with Tween-80
[6] = dose: 50.0 mg/kg/injection, schedule: Q07DX002 (ip), vehicle: saline with Tween-80
[7] = dose: 100.0 mg/kg/injection, schedule: Q07DX002 (ip), vehicle: saline with Tween-80
[8] = dose: 12.5 mg/kg/injection, schedule: Q07DX002 (ip), vehicle: Klucel (hydroxypropylcellulose) (HPC)
[9] = dose: 25.0 mg/kg/injection, schedule: Q07DX002 (ip), vehicle: Klucel (hydroxypropylcellulose) (HPC)
[10] = dose: 25.0 mg/kg/injection, schedule: Q07DX003 (ip), vehicle: Klucel (hydroxypropylcellulose) (HPC)
[11] = dose: 50.0 mg/kg/injection, schedule: Q07DX002 (ip), vehicle: Klucel (hydroxypropylcellulose) (HPC)
[12] = dose: 100.0 mg/kg/injection, schedule: Q07DX002 (ip), vehicle: Klucel (hydroxypropylcellulose) (HPC)
[13] = dose: 200.0 mg/kg/injection, schedule: Q07DX002 (ip), vehicle: Klucel (hydroxypropylcellulose) (HPC)
[14] = dose: 400.0 mg/kg/injection, schedule: Q07DX002 (ip), vehicle: Klucel (hydroxypropylcellulose) (HPC)

O=C(CCBr)N1CCN(C(=O)CCBr)CC1 was tested, and the T/C (dose: 10.0 mg/kg/injection, schedule: Q07DX002 (ip), vehicle: saline with Tween-80) was 90 % of control, the T/C (dose: 10.0 mg/kg/injection, schedule: Q07DX002 (ip), vehicle: water) was 172 % of control and the T/C (dose: 20.0 mg/kg/injection, schedule: Q07DX002 (ip), vehicle: saline with Tween-80) was 111 % of control. The T/C (dose: 20.0 mg/kg/injection, schedule: Q07DX002 (ip), vehicle: water) was 109 % of control, the T/C (dose: 40.0 mg/kg/injection, schedule: Q07DX002 (ip), vehicle: saline with Tween-80) was 60 % of control and the T/C (dose: 40.0 mg/kg/injection, schedule: Q07DX002 (ip), vehicle: water) was 157 % of control. The T/C (dose: 80.0 mg/kg/injection, schedule: Q07DX002 (ip), vehicle: saline with Tween-80) was 69 % of control and 78 % of control, the T/C (dose: 80.0 mg/kg/injection, schedule: Q07DX002 (ip), vehicle: water) was 120 % of control and the T/C (dose: 160.0 mg/kg/injection, schedule: Q07DX002 (ip), vehicle: water) was 91 % of control. For the same molecule, the T/C (dose: 320.0 mg/kg/injection, schedule: Q07DX002 (ip), vehicle: water) was 67 % of control.

With OCCOCC(F)(F)F the T/C [1] was 86 % of control, the T/C [2] was 120 % of control and 104 % of control and the T/C [3] was 116 % of control and 102 % of control.

CN=C(N)N/N=C(\c1ccccc1)c1ccc(Br)cc1 was tested, and the T/C (dose: 3.0 mg/kg/injection, schedule: Q07DX002 (ip), vehicle: saline with Tween-80) was 152 % of control, the T/C [4] was 169 % of control and the T/C [5] was 156 % of control. For the same molecule, the T/C [6] was 96 % of control.

With O=C1OCC2(C(=O)O)C(=O)OCC12 (stereo unspecified) the T/C (dose: 3.12 mg/kg/injection, schedule: Q07DX002 (ip), vehicle: saline with Tween-80) was 124 % of control, the T/C [4] was 87 % of control and the T/C [1] was 70 % of control and 86 % of control. For the same molecule, the T/C [6] was 109 % of control and the T/C [3] was 158 % of control.

For CCN(CC)CCOC(=O)Cc1cccc2c(=O)cc(-c3ccc(Cl)cc3)oc12, the T/C [7] was 48 % of control and the T/C [2] was 4 % of control.

With C=CS(C=C)=NS(=O)(=O)c1ccc(C)cc1 the T/C (dose: 1.56 mg/kg/injection, schedule: Q07DX002 (ip), vehicle: Klucel (hydroxypropylcellulose) (HPC)) was 110 % of control, the T/C (dose: 6.25 mg/kg/injection, schedule: Q07DX002 (ip), vehicle: Klucel (hydroxypropylcellulose) (HPC)) was 110 % of control and the T/C [8] was 111 % of control. For the same molecule, the T/C [9] was 94 % of control.

For O=S(CCCl)CCCl, the T/C (dose: 0.78 mg/kg/injection, schedule: Q07DX003 (ip), vehicle: Klucel (hydroxypropylcellulose) (HPC)) was 57 % of control, the T/C (dose: 1.56 mg/kg/injection, schedule: Q07DX003 (ip), vehicle: Klucel (hydroxypropylcellulose) (HPC)) was 84 % of control and the T/C (dose: 3.12 mg/kg/injection, schedule: Q07DX003 (ip), vehicle: Klucel (hydroxypropylcellulose) (HPC)) was 83 % of control. The T/C (dose: 6.25 mg/kg/injection, schedule: Q07DX003 (ip), vehicle: Klucel (hydroxypropylcellulose) (HPC)) was 87 % of control, the T/C [8] was 150 % of control and the T/C (dose: 12.5 mg/kg/injection, schedule: Q07DX003 (ip), vehicle: Klucel (hydroxypropylcellulose) (HPC)) was 84 % of control. The T/C [9] was 96 % of control, the T/C [10] was 95 % of control and the T/C [11] was 153 % of control. For the same molecule, the T/C [12] was 110 % of control.

With CCN(C)N=Nc1ccc(C(N)=O)cc1 the T/C [8] was 82 % of control and 84 % of control, the T/C [9] was 82 % of control and 87 % of control and the T/C [11] was 56 % of control and 63 % of control and 76 % of control. The T/C [12] was 61 % of control and 77 % of control and 78 % of control.

In the case of CC1=CC2OC3C(OC(=O)CCCCl)C(OC(=O)CCCCl)C(C)(C2(CO)CC1)C31CO1 (stereo unspecified), the T/C (dose: 2.0 mg/kg/injection, schedule: Q07DX003 (ip), vehicle: saline with Tween-80) was 103 % of control, the T/C (dose: 8.0 mg/kg/injection, schedule: Q07DX003 (ip), vehicle: saline with Tween-80) was 76 % of control and the T/C (dose: 16.0 mg/kg/injection, schedule: Q07DX003 (ip), vehicle: saline with Tween-80) was 83 % of control.

For Cn1/c2cc/c1=C(\c1ccc(S(=O)(=O)O)cc1)c1ccc([n-]1)/C(c1ccc(S(=O)(=O)O)cc1)=c1/cc/c([nH]1)=C(\c1ccc(S(=O)(=O)O)cc1)c1ccc([n-]1)/C=2c1ccc(S(=O)(=O)O)cc1.O.O=S(=O)(O)C(F)(F)F.[Cu+2], the T/C (dose: 12.5 mg/kg/injection, schedule: Q07DX002 (ip), vehicle: saline) was 79 % of control, the T/C (dose: 25.0 mg/kg/injection, schedule: Q07DX002 (ip), vehicle: saline) was 70 % of control and the T/C (dose: 50.0 mg/kg/injection, schedule: Q07DX002 (ip), vehicle: saline) was 77 % of control. The T/C (dose: 100.0 mg/kg/injection, schedule: Q07DX002 (ip), vehicle: saline) was 89 % of control and the T/C (dose: 200.0 mg/kg/injection, schedule: Q07DX002 (ip), vehicle: saline) was 80 % of control.

With N=[N+]=CC(=O)OCC(N)C(=O)O (stereo unspecified) the T/C (dose: 3.12 mg/kg/injection, schedule: Q07DX002 (ip), vehicle: water) was 97 % of control, the T/C (dose: 3.12 mg/kg/injection, schedule: Q07DX003 (ip), vehicle: clinical formulation) was 159 % of control and the T/C (dose: 6.25 mg/kg/injection, schedule: Q07DX002 (ip), vehicle: water) was 117 % of control. The T/C (dose: 6.25 mg/kg/injection, schedule: Q07DX003 (ip), vehicle: clinical formulation) was 110 % of control, the T/C (dose: 12.5 mg/kg/injection, schedule: Q07DX003 (ip), vehicle: clinical formulation) was 88 % of control and the T/C (dose: 25.0 mg/kg/injection, schedule: Q07DX002 (ip), vehicle: water) was 99 % of control. The T/C (dose: 25.0 mg/kg/injection, schedule: Q07DX003 (ip), vehicle: clinical formulation) was 100 % of control and the T/C (dose: 50.0 mg/kg/injection, schedule: Q07DX002 (ip), vehicle: water) was 91 % of control.

For CC1(C)OC2C(COC(=O)c3ccc([N+](=O)[O-])cc3)OC(NC(=O)N(CCCl)N=O)C2O1 (stereo unspecified), the T/C [4] was 62 % of control, the T/C [5] was 112 % of control and 123 % of control and the T/C (dose: 12.5 mg/kg/injection, schedule: Q07DX003 (ip), vehicle: saline with Tween-80) was 106 % of control. For the same molecule, the T/C [1] was 68 % of control, the T/C (dose: 25.0 mg/kg/injection, schedule: Q07DX003 (ip), vehicle: saline with Tween-80) was 88 % of control and the T/C [6] was 61 % of control and 82 % of control. The T/C (dose: 50.0 mg/kg/injection, schedule: Q07DX003 (ip), vehicle: saline with Tween-80) was 68 % of control, the T/C [7] was 48 % of control and 67 % of control and the T/C (dose: 100.0 mg/kg/injection, schedule: Q07DX003 (ip), vehicle: saline with Tween-80) was 40 % of control. The T/C (dose: 200.0 mg/kg/injection, schedule: Q07DX003 (ip), vehicle: saline with Tween-80) was 4 % of control.

In the case of COC(=O)Nc1ccc(Cc2ccc(NC(=O)OC)cc2)cc1, the T/C [4] was 60 % of control and the T/C [3] was 87 % of control and 102 % of control.

With COC1C(CO)OC(n2cnc3c(=S)nc(N)[nH]c32)C1O (stereo unspecified) the T/C [8] was 98 % of control, the T/C [9] was 74 % of control and the T/C [11] was 44 % of control. The T/C [12] was 118 % of control, the T/C [13] was 69 % of control and the T/C [14] was 44 % of control.

In the case of CN(C)/N=N/c1nc[nH]c1C(N)=O, the T/C [8] was 28 % of control, the T/C [9] was 64 % of control and the T/C [10] was 75 % of control. For the same molecule, the T/C (dose: 25.0 mg/kg/injection, schedule: Q07DX003 (ip), vehicle: carboxymethylcellulose (CMC)) was 37 % of control, the T/C [11] was 40 % of control and the T/C (dose: 50.0 mg/kg/injection, schedule: Q07DX003 (ip), vehicle: Klucel (hydroxypropylcellulose) (HPC)) was 43 % of control. For the same molecule, the T/C (dose: 50.0 mg/kg/injection, schedule: Q07DX003 (ip), vehicle: carboxymethylcellulose (CMC)) was 28 % of control, the T/C [12] was 74 % of control and 75 % of control and the T/C (dose: 100.0 mg/kg/injection, schedule: Q07DX003 (ip), vehicle: Klucel (hydroxypropylcellulose) (HPC)) was 85 % of control. The T/C (dose: 100.0 mg/kg/injection, schedule: Q07DX003 (ip), vehicle: carboxymethylcellulose (CMC)) was 16 % of control, the T/C [13] was 12 % of control and 28 % of control and the T/C (dose: 200.0 mg/kg/injection, schedule: Q07DX003 (ip), vehicle: Klucel (hydroxypropylcellulose) (HPC)) was 9 % of control. For the same molecule, the T/C (dose: 200.0 mg/kg/injection, schedule: Q07DX003 (ip), vehicle: carboxymethylcellulose (CMC)) was 16 % of control, the T/C [14] was 13 % of control and 33 % of control and the T/C (dose: 400.0 mg/kg/injection, schedule: Q07DX003 (ip), vehicle: Klucel (hydroxypropylcellulose) (HPC)) was 44 % of control.
